Assay results: patent US11905530B2, “Cell encapsulation device comprising a pancreatic progenitor cell population” (ViaCyte, Inc., priority 2009, dated 2024)

How the values were obtained:
[1] = test system: mice implanted with iPEC grafts; experiment: Glucose stimulated insulin secretion (GSIS): human C-peptide in serum of mice implanted with iPEC grafts; format: in vivo
Source text: (§1) To determine whether the change in the composition of PEC and iPEC populations affected in vivo function, PEC and iPEC grafts from most of the experiments described in Table 11 were transplanted into mice substantially as previously described herein and in Applicant's other patent and non-patent publications, including Schulz et al. (2012) and Kroon et al (2008), supra and U.S. Pat. Nos. 7,534,608; 7,695,965; 7,993,920 and 8,278,106, supra. Briefly, PEC and iPEC populations were wholly encapsulated with a […] semi-permeable cell encapsulation device, some of which included micro perforations. The devices were manufactured by Applicant and are described in detail in U.S. Pat. No. 8,278,106, entitled ENCAPSULATION OF PANCREATIC CELLS FROM HUMAN PLURIPOTENT STEM CELLS, filed Nov. 13, 2009, the disclosure of which is incorporated herein by reference in its entirety. Glucose stimulated insulin secretion (GSIS) assays were performed starting from about 56 days post-implant. Blood was collected prior to (fasting) and at combinations of 30 and/or 60 minutes after glucose administration. Graft function was assessed by measuring human C-peptide concentrations in the serum in response to glucose administration.
The amount of human C-peptide released into the serum is indicative of the amount of insulin released. C-peptide is a short 31 amino acid peptide connecting or linking A and B-chains of proinsulin and preproinsulin, which is secreted by functioning beta or insulin secreting cells. As discussed previously by Kroon et al. (2008) supra and others, human C-peptide measurements are appropriate for assessing the release of de novo-generated insulin by the implanted cells. […] Human C-peptide was detected in the serum by at least 8 weeks post-implant. With additional weeks of implant and fasting, glucose-stimulated C-peptide levels increased with the peak levels of C-peptide shifting from 60 minutes to 30 minutes post-glucose administration, which is indicative of a more rapid response to glucose challenge as the insulin cells mature.

PEC derived from hESC = experiment: Flow cytometry analysis of PEC derived from hESC and treated with heregulin and/or FGF2; format: cell-based, human
Source text: Table 9 provides a summary of the flow cytometry analysis of PEC cells treated with Hrg1β and FGF2 at stage 3 and/or 4. The endocrine cells are denoted as CHGA positive (or CHGA+) cells and the non-endocrine cells are denoted as CHGA negative (or CHGA−) cells. The endocrine (CHGA+) and non-endocrine cells (CHGA−) may stain positive for other markers, e.g., positive for PDX1 and/or NKX6.1.

[2] = test system: hES-derived cell aggregates; experiment: Cell aggregate size of hES-derived cell aggregates in suspension culture; format: cell-based, human
Description: Preliminary studies were performed using Heregulin and FGF. In certain of these studies, Rho-kinase inhibitor, Y-27632, was included.

[3] = test system: iPS-derived cell cultures (iPEC); experiment: Flow cytometry analysis of iPEC populations from heregulin treated iPS-derived cell cultures; format: cell-based, human; settings: hIPSC, 30 ng/mL heregulin at stages 3 and 4
Source text: (§2) Changes to the standard method as set forth in Table 7 include, but are not limited to: optimization of the number of times any iPSC is passaged; modulating levels of BMP signaling; modulating iPSC suspension aggregation parameters during expansion and differentiation (e.g. shear force, rotation speed and the like); optimization of the concentrations, time of use and duration of use of growth factors, such as Wnt, Activin and rho-kinase inhibitors; and treatment with other growth factors at various stages 1 through 4 of the differentiation protocol as candidates for improving cell mass, proliferation, differentiation, survival and the like (e.g. ERBB ligands). These many iterative experiments were tested alone, or in combination, to determine how differentiation methods for iPSC during stages 1-4 could be optimized. […] The baseline conditions were similar to those described in Examples 1, 2 and 5 as well as Table 7 herein, except that heregulin was added at stages 3 and 4. Although 30 ng/mL of Hrg1β was used, concentrations ranging from 10 ng/mL to 50 ng/mL, or even greater than 50 ng/mL are suitable. Also, addition of a rho-kinase inhibitor, Y-27632, was maintained in the differentiation cultures as described in Example 2.
(§3) To determine the effect of the addition of heregulin or heregulin and a rho-kinase inhibitor on stage 3 and 4 cell subpopulations, iPEC populations were analyzed by flow cytometry. Table 11 provides a summary of the flow cytometry analysis of various iPEC populations using the formulations set forth in Table 10, as well as such formulations having been modified by increasing the Activin concentration to 200 ng/mL. […] Table 11 also discloses data regarding in vivo function of the cells produced in each experiment.

PEC (hESC) = experiment: Flow cytometry analysis of PEC from heregulin treated hESC-derived cell cultures (E2354); format: cell-based, human
Source text: as §2, §3
Under certain conditions, the ratio of subpopulations of cells in the PEC (hESC, E2354) and iPEC (E2314, E2344, E2347) populations were altered. For example, sometimes, the percentage of endocrine (CHGA+) cells decreased and the percentage of non-endocrine cells (CHGA−/NKX6.1+/PDX1+) increased as compared to the baseline (no heregulin) conditions.

[4] = test system: mice implanted with PEC grafts (CyT203 hESC); experiment: Glucose stimulated insulin secretion (GSIS): human C-peptide in serum of mice implanted with PEC grafts from hESC; format: in vivo; settings: experiment 2354; PEC produced from hESC; grafts resulting from heregulin treatment
Source text: as §1
The amount of human C-peptide released into the serum is indicative of the amount of insulin released. […] Human C-peptide was detected in the serum by at least 8 weeks post-implant. […]

iPSC = experiment: Cell mass of iPSC-derived differentiation cultures for implantation; format: cell-based, human; settings: heregulin at stages 3 and 4 without a rho-kinase inhibitor; implantation impossible
Source text: As such, the provision of heregulin alone or a rho-kinase inhibitor alone is not substantially similar to the sum effect of the two combined. That is, alone neither results in robust glucose responsiveness in vivo but combined they produce glucose responsiveness similar to that of hES-derived cells. Accordingly, it appeared that the provision of both heregulin and a rho-kinase inhibitor is synergistic since their combined effect is greater than the sum of the effect of each separately.

C[C@@H](N)[C@H]1CC[C@H](C(=O)Nc2ccncc2)CC1 [rho-kinase inhibitor, Y-27632, reference compound]
in vivo function of graft ([1]; rho-kinase inhibitor alone (baseline conditions, no heregulin)): poor in vivo function

Fibroblast growth factor 2 [FGF2]
CHGA− NKX6.1− PDX1− (Triple Negative/ Residual Cells) (PEC derived from hESC; 50 ng/mL of FGF2 for 2 days at stage 3, control 13.1): 9.15% | CHGA+ (Endocrine) (PEC derived from hESC; 50 ng/mL of FGF2 for 2 days at stage 3, control 32.9): 11.9% | CHGA− NKX6.1+ PDX1+ (Non-endocrine) (PEC derived from hESC; 50 ng/mL of FGF2 for 2 days at stage 3, control 54.01): 79% | CHGA− NKX6.1− PDX1− (Triple Negative/ Residual Cells) (PEC derived from hESC; 50 ng/mL of FGF2 for 3 days at stage 3, control 13.1): 22.7% | CHGA+ (Endocrine) (PEC derived from hESC; 50 ng/mL of FGF2 for 3 days at stage 3, control 32.9): 0.33% | CHGA− NKX6.1+ PDX1+ (Non-endocrine) (PEC derived from hESC; 50 ng/mL of FGF2 for 3 days at stage 3, control 54.01): 76.9% | cell aggregate size ([2]; 3 days of 50 ng/mL FGF2 at stage 3 compared to 2 days): increase in cell aggregate size

Heregulin-1β
CHGA− NKX6.1− PDX1− (Triple Negative/ Residual Cells) (PEC derived from hESC; 10 ng/mL Heregulin-1β at stage 3, control without Hrg and FGF2 13.1, listed as Hrg): 8.55% | CHGA− NKX6.1− PDX1− (Triple Negative/ Residual Cells) (PEC derived from hESC; 10 ng/mL Heregulin-1β at stage 3, control without Hrg and FGF2 13.1, listed as Hrg1β): did decrease | CHGA− NKX6.1+ PDX1+ (Non-endocrine) (PEC derived from hESC; 10 ng/mL Heregulin-1β at stage 3, control without Hrg and FGF2 54.01): 61.2% | CHGA+ (Endocrine) (PEC derived from hESC; 10 ng/mL Heregulin-1β at stage 3, share of PEC population, control without Hrg and FGF2 32.9, listed as Hrg): 30.3% | CHGA+ (Endocrine) (PEC derived from hESC; 10 ng/mL Heregulin-1β at stage 3, share of PEC population, control without Hrg and FGF2 32.9, listed as Hrg1β): not significantly affected | CHGA− NKX6.1− PDX1− (Triple Negative/ Residual Cells) (PEC derived from hESC; 50 ng/mL Heregulin-1β at stage 3, control 13.1, listed as Hrg): 6.9% | CHGA− NKX6.1− PDX1− (Triple Negative/ Residual Cells) (PEC derived from hESC; 50 ng/mL Heregulin-1β at stage 3, control 13.1, listed as Hrg1β): did decrease and more so | CHGA+ (Endocrine) (PEC derived from hESC; 50 ng/mL Heregulin-1β at stage 3, control 32.9): 28.9% | CHGA− NKX6.1+ PDX1+ (Non-endocrine) (PEC derived from hESC; 50 ng/mL Heregulin-1β at stage 3, control 54.01): 64.2% | CHGA− NKX6.1− PDX1− (Triple Negative/ Residual Cells) ([3]; Exp. E2314, baseline 3.20): 9.88% | CHGA− NKX6.1− PDX1+ (PDX1 only) ([3]; Exp. E2314, baseline 11.32): 16.83% | CHGA+ (Endocrine) ([3]; Exp. E2314, baseline 19.83): 9.00% | CHGA− NKX6.1+ PDX1+ (Non-endocrine) ([3]; Exp. E2314, baseline 65.59): 64.21% | CHGA− NKX6.1− PDX1− (Triple Negative/ Residual Cells) ([3]; Exp. E2344, baseline 1.80): 2.75% | CHGA− NKX6.1− PDX1+ (PDX1 only) ([3]; Exp. E2344, baseline 5.45): 11.23% | CHGA− NKX6.1+ PDX1+ (Non-endocrine) ([3]; Exp. E2344, baseline 36.15): 49.00% | CHGA+ (Endocrine) ([3]; Exp. E2344, baseline 56.51): 36.13% | CHGA− NKX6.1− PDX1− (Triple Negative/ Residual Cells) ([3]; Exp. E2347, baseline 2.11): 1.68% | CHGA− NKX6.1− PDX1+ (PDX1 only) ([3]; Exp. E2347, baseline 10.97): 12.30% | CHGA− NKX6.1+ PDX1+ (Non-endocrine) ([3]; Exp. E2347, baseline 37.16): 68.91% | CHGA+ (Endocrine) ([3]; Exp. E2347, baseline 49.78): 17.27% | CHGA− NKX6.1− PDX1− (Triple Negative/ Residual Cells) ([3]; Exp. E2380, baseline 9.10): 7.03% | CHGA− NKX6.1− PDX1+ (PDX1 only) ([3]; Exp. E2380, baseline 12.08): 17.24% | CHGA− NKX6.1+ PDX1+ (Non-endocrine) ([3]; Exp. E2380, baseline 38.18): 29.72% | CHGA+ (Endocrine) ([3]; Exp. E2380, baseline 41.16): increased rather than decreased | CHGA+ (Endocrine) ([3]; Exp. E2380, baseline 41.16, listed as Hg): 45.91% | CHGA− NKX6.1− PDX1− (Triple Negative/ Residual Cells) (PEC (hESC); Exp. E2354, 30 ng/mL heregulin at stages 3 and 4, baseline 1.75): 1.86% | CHGA− NKX6.1− PDX1+ (PDX1 only) (PEC (hESC); Exp. E2354, 30 ng/mL heregulin at stages 3 and 4, baseline 2.89): 8.10% | CHGA+ (Endocrine) (PEC (hESC); Exp. E2354, 30 ng/mL heregulin at stages 3 and 4, baseline 33.39): 16.18% | CHGA− NKX6.1+ PDX1+ (Non-endocrine) (PEC (hESC); Exp. E2354, 30 ng/mL heregulin at stages 3 and 4, baseline 62.01): 73.00% | cell aggregate size ([2]; 10 ng/mL for one day at stage 1, compared to suspension culture without Heregulin-1β, preliminary studies): increased the cell aggregate size | aggregate disk size ([2]; Hrg1β increased from 10 ng/mL to 50 ng/mL at stage 3): aggregate disk size increased | increase of serum human C-peptide compared to grafts prepared without heregulin (baseline) ([1]; experiment 2380, 60 minutes post glucose administration): ~5 fold | serum human C-peptide ([1]; experiment 2380, iPEC grafts resulting from heregulin treatment, 60 minutes post glucose administration, baseline 200 pM): 933 pM | serum human C-peptide post glucose administration compared to baseline controls ([1]; grafts resulting from heregulin treatment, in general (FIGS. 7A-7C)): higher levels of serum human C-peptide | serum C-peptide compared to baseline controls [4]: does not show higher levels of serum C-peptide | cell mass (iPSC): visibly poor cell mass
